Literature values in patent US20250041461A1, “[177LU] LUTETIUM-PSMA I&T COMPOSITION AND DOSIMETRY, KIT, METHOD OF MAKING, AND METHOD OF USING THEREOF” (Curium US LLC, priority 2023, published 2025).
Like-named read-outs stand apart in the source and are kept apart here.

Assays:
[1] = cited from earlier work
[2] = cited from earlier work; for Absorbed Dose, Mean: Pluvicto; for dose estimate, Mean: Pluvicto Spc
prostate cancer = settings: in vivo; cited from earlier work

SMILES: O=C([O-])CN1CCN(CC(=O)[O-])CCN(CC(=O)NCC2CCC(C(=O)N[C@@H](Cc3ccc4ccccc4c3)C(=O)NCCCC[C@H](NC(=O)N[C@@H](CCC(=O)O)C(=O)O)C(=O)O)CC2)CCN(CC(=O)[O-])CC1.[177Lu+3] (some centres unmarked) [^177Lu-PSMA-617]
- mean renal absorbed dose ([1]; VISION trial, 29 patients): 0.43±0.16 Gy/GBq
- mean renal absorbed dose ([1]; Violet et al.): 0.39±0.16 Gy/GBq
- projected cumulative absorbed dose to the kidneys at 6 cycles ([1]; Vision trial): 19±7.3 Gy
- renal toxicities ([1]; Vision trial): no renal toxicities were observed
- Absorbed Dose, Mean ([2]; Bladder): 0.32 Gy/GBq
- dose estimate, Mean ([2]; Heart Wall): 0.17 Gy/GBq
- Absorbed Dose, Mean ([2]; Heart): 0.17 Gy/GBq
- dose estimate, Mean ([2]; Kidneys): 0.43 Gy/GBq
- Absorbed Dose, Mean ([2]; Kidneys): 0.43 Gy/GBq
- Absorbed Dose, Mean ([2]; Lacrimal Glands): 2.1 Gy/GBq
- dose estimate, Mean ([2]; Lacrimal gland): 2.1 Gy/GBq
- Absorbed Dose, Mean ([2]; Left Colon): 0.58 Gy/GBq
- dose estimate, Mean ([2]; Left colon): 0.58 Gy/GBq
- dose estimate, Mean ([2]; Liver): 0.09 Gy/GBq
- Absorbed Dose, Mean ([2]; Liver): 0.090 Gy/GBq
- dose estimate, Mean ([2]; Rectum): 0.56 Gy/GBq
- Absorbed Dose, Mean ([2]; Right Colon): 0.32 Gy/GBq
- dose estimate, Mean ([2]; Right colon): 0.32 Gy/GBq
- Absorbed Dose, Mean ([2]; Salivary Glands): 0.63 Gy/GBq
- dose estimate, Mean ([2]; Salivary glands): 0.63 Gy/GBq
- dose estimate, Mean ([2]; Spleen): 0.07 Gy/GBq
- Absorbed Dose, Mean ([2]; Spleen): 0.067 Gy/GBq
- dose estimate, Mean ([2]; Thyroid): 0.26 Gy/GBq
- Absorbed Dose, Mean ([2]; Thyroid): 0.26 Gy/GBq
- dose estimate, Mean ([2]; Urinary bladder wall): 0.32 Gy/GBq
- adverse effects (prostate cancer): mainly transient adverse effects
